Key:
[1] = shake flask on a mixture of 185; loss from the water phase only; LC-QTOF peak areas; conditions: room
[2] = shake flask on a mixture of 185; loss from the water phase only; LC-Orbitrap peak areas; conditions: room

| SMILES | log partition 1-octanol / HPLC water, unbuffered, traces of methanol / DMSO [1] [log10] | log partition butyl acetate / HPLC water, unbuffered, traces of methanol / DMSO [1] [log10] | log partition chloroform / HPLC water, unbuffered, traces of methanol / DMSO [1] [log10] | log partition cyclohexane / HPLC water, unbuffered, traces of methanol / DMSO [1] [log10] | log partition dichloromethane / HPLC water, unbuffered, traces of methanol / DMSO [1] [log10] | log partition n-hexane / HPLC water, unbuffered, traces of methanol / DMSO [1] [log10] | log partition n-octane / HPLC water, unbuffered, traces of methanol / DMSO [1] [log10] | log partition n-undecane / HPLC water, unbuffered, traces of methanol / DMSO [1] [log10] | log partition oleylalcohol / HPLC water, unbuffered, traces of methanol / DMSO [1] [log10] | log partition toluene / HPLC water, unbuffered, traces of methanol / DMSO [1] [log10] | log partition 1-octanol / HPLC water, unbuffered, traces of methanol / DMSO [2] [log10] | log partition butyl acetate / HPLC water, unbuffered, traces of methanol / DMSO [2] [log10] | log partition chloroform / HPLC water, unbuffered, traces of methanol / DMSO [2] [log10] | log partition cyclohexane / HPLC water, unbuffered, traces of methanol / DMSO [2] [log10] | log partition dichloromethane / HPLC water, unbuffered, traces of methanol / DMSO [2] [log10] | log partition n-hexane / HPLC water, unbuffered, traces of methanol / DMSO [2] [log10] | log partition n-octane / HPLC water, unbuffered, traces of methanol / DMSO [2] [log10] | log partition n-undecane / HPLC water, unbuffered, traces of methanol / DMSO [2] [log10] | log partition oleylalcohol / HPLC water, unbuffered, traces of methanol / DMSO [2] [log10] | log partition toluene / HPLC water, unbuffered, traces of methanol / DMSO [2] [log10] |
| --- | --- | --- | --- | --- | --- | --- | --- | --- | --- | --- | --- | --- | --- | --- | --- | --- | --- | --- | --- | --- |
| Cc1cc(C)nc(NS(=O)(=O)c2ccc(N)cc2)n1 | -0.08641 | -0.1162 | -0.2658 | -0.9757 | -0.5411 | -1.336 | -1.319 | -1.455 | -0.5276 | -1.085 | -0.03015 | -0.1328 | 0.1061 | -0.9043 | -0.3816 | -0.631 | -0.6854 | -0.8904 | -0.3433 | -1.077 |
| CC(C)N1C(=O)c2ccccc2NS1(=O)=O | -1.303 | -1.026 | 0.1169 | -1.509 | 0.3228 | -1.425 | -1.602 | -1.756 | -1.143 | -0.5708 | 0.1891 | -1.323 | 1.041 | -0.4548 | 0.004436 | -0.9186 | -0.654 | -1.481 | -0.1011 | -0.9524 |
| Cc1ccc([N+](=O)[O-])cc1S(=O)(=O)O | 2.399 | 2.641 | 2.843 | 0.5479 | 2.477 | 0.3824 | 0.4393 | 0.4122 | 2.608 | 2.304 | 1.274 | 1.798 | 2.228 | 0.6608 | 2.4 | 0.3087 | 0.3589 | 0.261 | 0.9359 | 1.703 |
| CC(C)C1(C)N=C(c2nc3ccccc3cc2C(=O)O)NC1=O (stereo not shown) | -0.1003 | 0.3218 | -1.426 | -1.269 | -0.4187 | -0.9732 | -1.466 | -1.153 | 0.635 | -0.5162 | 0.3193 | -0.573 | -0.8011 | -1.428 | -0.4847 | -1.375 | -1.474 | -1.445 | -0.2597 | -1.419 |
| COC(=O)C(C)N(C(=O)c1ccco1)c1c(C)cccc1C (stereo not shown) | 2.113 | 2.322 | 2.434 |  | 2.829 |  |  |  | 2.215 | 2.516 | 1.653 | 2.039 | 1.758 |  | 1.796 |  |  |  | 1.315 | 1.918 |
| CCCCNS(=O)(=O)c1ccc(C)cc1 | 1.761 | 1.471 | 1.664 | 0.988 | 1.556 | 0.6036 | 0.3273 | 0.4324 | 1.505 | 1.679 | 1.509 | 1.21 | 1.689 | 0.5819 | 1.83 | 0.2985 | 0.4632 | 0.151 | 0.9177 | 1.122 |

Source: PMC10569036
